Test results: US20040044006A1, “Methods of use of quinolone compounds against pneumococcal and haemophilus bacteria” (priority 1999, published 2004)
In brackets after ≈: the same amount, converted by molar mass. Read-outs that look alike come from different tables or passages of the source.

Experiments:
[1] = system: pneumococci with ciprofloxacin MICs ≧8 μg/ml; experiment: Quinolone agar dilution MICs of 28 ciprofloxacin resistant pneumococcal strains, correlated with QRDR mutations; type: cell-based, Streptococcus pneumoniae
Experimental: Additionally these strains were tested for mutations in parC, gyrA, parE, and gyrB (Pan, et al. Antimicrob. Agents Chemother. 40:2321-2326, 1996) and for efflux mechanism (Brenwald, et ail., Antimicrob. Agents Chemother. 42:2032-2035, 1998).
Gemifloxacin susceptibility powder was obtained from SmithKline Beecham Laboratories, Harlow, UK. Agar dilution methodology was performed on 28 strains as described previously (M. R. Jacobs, Clin. Infect. Dis. 15: 119-127, […] and M. R. Jacobs, Rev. Med. Microbiol. 6:77-93, 1995), using Mueller-Hinton altar (BBL Microbiology Systems, Cockeysville, Md.) supplemented with 5% sheep blood. Standard quality control strains, including Streptococcus pneumoniae ATCC 49619, were included in each run of agar dilution MICs.

pneumococcal strains = experiment: Microbroth dilution MICs of strains tested by time-kill and PAE; type: cell-based; conditions: Streptococcus pneumoniae, read-out: Microdilution MIC
In short: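 Broth MICs per NCCLS in cation-adjusted Mueller-Hinton broth with 5% lysed defibrinated horse blood. Used for 12 time-kill and 6 PAE strains. S. pneumoniae ATCC 49619 run as quality control.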

[2] = system: pneumococci (5 quinolone susceptible and 1 resistant strains); experiment: Post-antibiotic effect (PAE) testing; type: cell-based, Streptococcus pneumoniae
In short: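 Pneumococci (~5×10^6 cfu/ml) in MHB with 5% lysed horse blood were exposed 1 h at 35 °C, the quinolone-resistant strain at 5×MIC, then diluted 1:1000. Viable counts every 2 h until McFarland #1 turbidity. PAE = T − C, the 1 log10 regrowth time versus untreated control; mean of two assays ±SD.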

[3] = system: quinolone-resistant Haemophilus influenzae strains; experiment: Microdilution MIC determination in HTM for quinolone-resistant Haemophilus influenzae strains; type: cell-based; conditions: 9 quinolone-resistant Haemophilus influenzae strains
In short: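 Broth microdilution in HTM, inoculum from 24 h chocolate agar colonies by direct suspension to a final 3-8×10^5 CFU/ml. Incubated in ambient air at 35° C. for 20-24 hours; MIC read as the lowest concentration with no growth.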

[4] = agar dilution, 28 strains with ciprofloxacin MICs ≧8.0 μg/ml

With `C[C@@H]1CN(c2c(F)c(N)c3c(=O)c(C(=O)O)cn(C4CC4)c3c2F)C[C@H](C)N1` [Sparfloxacin, sparfloxacin] the MIC50 ([1]; Streptococcus pneumoniae) was 8 µg/mL (≈ 20.4 µM), the MIC90 ([1]; Streptococcus pneumoniae) was 16 µg/mL (≈ 40.8 µM) and the MIC ([1]; Streptococcus pneumoniae, read-out: MICs in strains with three or four QRDR mutations, 20 strains, bound holds in all 20 (ciprofloxacin, levofloxacin, sparfloxacin), 19 (grepafloxacin), 10 (trovafloxacin), 18 (gemifloxacin)) was over 1 µg/mL. It also gave an MIC ([1]; Streptococcus pneumoniae, read-out: MICs in strains with three or four QRDR mutations, 21 strains, bound holds in all 21 (ciprofloxacin, levofloxacin, sparfloxacin), 20 (grepafloxacin), 11 (trovafloxacin), 19 (gemifloxacin)) of at least 1 µg/mL, an MIC ([1]; Streptococcus pneumoniae, strain 1, ParC S79-F, ParE I460-V, GyrA S81-F, GyrB None) of 4 µg/mL (≈ 10.2 µM) and an MIC ([1]; Streptococcus pneumoniae, strain 1, ParC S79-F, ParE I460-V, GyrA S83-F, GyrB None) of 4 µg/mL (≈ 10.2 µM). For the same molecule, the MIC ([1]; Streptococcus pneumoniae, strain 3, ParC D83-N, ParE I460-V, GyrA S81-F, GyrB None) was 1 µg/mL (≈ 2.55 µM), the MIC ([1]; Streptococcus pneumoniae, strain 3, ParC D83-N, ParE I460-V, GyrA S83-F, GyrB None) was 1 µg/mL (≈ 2.55 µM) and the MIC ([1]; Streptococcus pneumoniae, strain 4, ParC S79-F, ParE I460-V, GyrA S81-F, GyrB None) was 1 µg/mL (≈ 2.55 µM). The MIC ([1]; Streptococcus pneumoniae, strain 4, ParC S79-F, ParE I460-V, GyrA S83-F, GyrB None) was 1 µg/mL (≈ 2.55 µM), the MIC ([1]; Streptococcus pneumoniae, strain 5, ParC R95-C, ParE D435-N, GyrA S81-F, GyrB None) was 1 µg/mL (≈ 2.55 µM) and the MIC ([1]; Streptococcus pneumoniae, strain 5, ParC R95-C, ParE D435-N, GyrA S83-F, GyrB None) was 1 µg/mL (≈ 2.55 µM). For the same molecule, the MIC ([1]; Streptococcus pneumoniae, strain 6, ParC S79-Y, ParE I460-V, GyrA E85-K, GyrB None) was 8 µg/mL (≈ 20.4 µM), the MIC ([1]; Streptococcus pneumoniae, strain 6, ParC S79-Y, ParE I460-V, GyrA E87-K, GyrB None) was 8 µg/mL (≈ 20.4 µM) and the MIC ([1]; Streptococcus pneumoniae, strain 7, ParC None, ParE I460-V, GyrA None, GyrB None) was 1 µg/mL (≈ 2.55 µM). For the same molecule, the MIC ([1]; Streptococcus pneumoniae, strain 8, ParC S79-Y, ParE None, GyrA None, GyrB None) was 1 µg/mL (≈ 2.55 µM), the MIC ([1]; Streptococcus pneumoniae, strain 9, ParC S79-Y, ParE None, GyrA None, GyrB None) was 2 µg/mL (≈ 5.1 µM) and the MIC ([1]; Streptococcus pneumoniae, strain 10, ParC S79-F, ParE I460-V, GyrA S81-C, GyrB None) was 4 µg/mL (≈ 10.2 µM). The MIC ([1]; Streptococcus pneumoniae, strain 10, ParC S79-F, ParE I460-V, GyrA S83-C, GyrB None) was 4 µg/mL (≈ 10.2 µM), the MIC ([1]; Streptococcus pneumoniae, strain 11, ParC S79-F, ParE I460-V, GyrA S81-F, GyrB None) was 4 µg/mL (≈ 10.2 µM) and the MIC ([1]; Streptococcus pneumoniae, strain 11, ParC S79-F, ParE I460-V, GyrA S83-F, GyrB None) was 4 µg/mL (≈ 10.2 µM). The MIC ([1]; Streptococcus pneumoniae, strain 12, ParC S79-F, ParE I460-V, GyrA None, GyrB D435-N) was 1 µg/mL (≈ 2.55 µM), the MIC ([1]; Streptococcus pneumoniae, strain 13, ParC S79-F, ParE I460-V, GyrA None, GyrB E474-K) was 8 µg/mL (≈ 20.4 µM) and the MIC ([1]; Streptococcus pneumoniae, strain 14, ParC S79-F, ParE I460-V, GyrA S81-F, GyrB None) was 8 µg/mL (≈ 20.4 µM). For the same molecule, the MIC ([1]; Streptococcus pneumoniae, strain 14, ParC S79-F, ParE I460-V, GyrA S83-F, GyrB None) was 8 µg/mL (≈ 20.4 µM), the MIC ([1]; Streptococcus pneumoniae, strain 15, ParC 79-F, ParE I460-V, GyrA S83-F, GyrB None) was 8 µg/mL (≈ 20.4 µM) and the MIC ([1]; Streptococcus pneumoniae, strain 15, ParC S79-F, ParE I460-V, GyrA S81-F, GyrB None) was 8 µg/mL (≈ 20.4 µM). The MIC ([1]; Streptococcus pneumoniae, strain 16, ParC S79-F, ParE I460-V, GyrA S81-F, GyrB None) was 8 µg/mL (≈ 20.4 µM), the MIC ([1]; Streptococcus pneumoniae, strain 16, ParC S79-F, ParE I460-V, GyrA S83-F, GyrB None) was 8 µg/mL (≈ 20.4 µM) and the MIC ([1]; Streptococcus pneumoniae, strain 17, ParC D83-N, ParE None, GyrA S81-F, GyrB None) was 8 µg/mL (≈ 20.4 µM). It also gave an MIC ([1]; Streptococcus pneumoniae, strain 17, ParC D83-N, ParE None, GyrA S83-F, GyrB None) of 8 µg/mL (≈ 20.4 µM), an MIC ([1]; Streptococcus pneumoniae, strain 18, ParC S79-F, ParE I460-V, GyrA S81-F, GyrB None) of 8 µg/mL (≈ 20.4 µM) and an MIC ([1]; Streptococcus pneumoniae, strain 18, ParC S79-F, ParE I460-V, GyrA S83-F, GyrB None) of 8 µg/mL (≈ 20.4 µM). The MIC ([1]; Streptococcus pneumoniae, strain 19, ParC S79-F, ParE I460-V, GyrA S81-F, GyrB None) was 8 µg/mL (≈ 20.4 µM), the MIC ([1]; Streptococcus pneumoniae, strain 19, ParC S79-F, ParE I460-V, GyrA S83-F, GyrB None) was 8 µg/mL (≈ 20.4 µM) and the MIC ([1]; Streptococcus pneumoniae, strain 20, ParC S79-F, ParE I460-V, GyrA E85-K, GyrB None) was 8 µg/mL (≈ 20.4 µM). For the same molecule, the MIC ([1]; Streptococcus pneumoniae, strain 20, ParC S79-F, ParE I460-V, GyrA E87-K, GyrB None) was 8 µg/mL (≈ 20.4 µM), the MIC ([1]; Streptococcus pneumoniae, strain 21, ParC S79-F, ParE I460-V, GyrA S81-F, GyrB None) was 8 µg/mL (≈ 20.4 µM) and the MIC ([1]; Streptococcus pneumoniae, strain 21, ParC S79-F, ParE I460-V, GyrA S83-F, GyrB None) was 8 µg/mL (≈ 20.4 µM). The MIC ([1]; Streptococcus pneumoniae, strain 22, ParC S79-F, ParE I460-V, GyrA S81-Y, GyrB None) was 8 µg/mL (≈ 20.4 µM), the MIC ([1]; Streptococcus pneumoniae, strain 22, ParC S79-F, ParE I460-V, GyrA S83-Y, GyrB None) was 8 µg/mL (≈ 20.4 µM) and the MIC ([1]; Streptococcus pneumoniae, strain 23, ParC S79-Y, ParE None, GyrA S81-A, GyrB None) was 8 µg/mL (≈ 20.4 µM). For the same molecule, the MIC ([1]; Streptococcus pneumoniae, strain 23, ParC S79-Y, ParE None, GyrA S83-A, GyrB None) was 8 µg/mL (≈ 20.4 µM), the MIC ([1]; Streptococcus pneumoniae, strain 26, ParC S79-F, ParE None, GyrA S81-Y, GyrB None) was over 32 µg/mL and the MIC ([1]; Streptococcus pneumoniae, strain 26, ParC S79-F, ParE None, GyrA S83-Y, GyrB None) was over 32 µg/mL. For the same molecule, the MIC ([1]; Streptococcus pneumoniae, strain 27, ParC S79-Y, ParE I460-V, GyrA S81-F, GyrB None) was over 32 µg/mL, the MIC ([1]; Streptococcus pneumoniae, strain 27, ParC S79-Y, ParE I460-V, GyrA S83-F, GyrB None) was over 32 µg/mL and the MIC ([1]; Streptococcus pneumoniae, strain 28, ParC D83-G N91-D, ParE None, GyrA S81-F S114-G, GyrB None) was over 32 µg/mL. For the same molecule, the MIC ([1]; Streptococcus pneumoniae, strain 28, ParC cell empty, ParE None, GyrA S83-F and S116-G, GyrB None) was over 32 µg/mL, the MIC50 [1, 4] was 8.0 µg/mL (≈ 20.4 µM) and the MIC90 [1, 4] was 16.0 µg/mL (≈ 40.8 µM). The MIC (pneumococcal strains; strain 1 (S) penicillin susceptible) was 0.125 µg/mL (≈ 0.319 µM), the MIC (pneumococcal strains; strain 2 (S) penicillin susceptible) was 0.25 µg/mL (≈ 0.637 µM) and the MIC (pneumococcal strains; strain 3 (S) penicillin susceptible, quinolone-resistant) was 32 µg/mL (≈ 81.5 µM). For the same molecule, the MIC (pneumococcal strains; strain 4 (S) penicillin susceptible, quinolone-resistant) was 16 µg/mL (≈ 40.8 µM), the MIC (pneumococcal strains; strain 5 (I) penicillin intermediate) was 0.5 µg/mL (≈ 1.27 µM) and the MIC (pneumococcal strains; strain 6 (I) penicillin intermediate) was 0.25 µg/mL (≈ 0.637 µM). It also gave an MIC (pneumococcal strains; strain 7 (I) penicillin intermediate) of 0.25 µg/mL (≈ 0.637 µM), an MIC (pneumococcal strains; strain 8 (I) penicillin intermediate) of 0.25 µg/mL (≈ 0.637 µM) and an MIC (pneumococcal strains; strain 9 (R) penicillin resistant) of 0.5 µg/mL (≈ 1.27 µM). It also gave an MIC (pneumococcal strains; strain 10 (I)) of 0.25 µg/mL (≈ 0.637 µM), an MIC (pneumococcal strains; strain 11 (R) penicillin resistant) of 0.25 µg/mL (≈ 0.637 µM) and an MIC (pneumococcal strains; strain 12 (R) penicillin resistant) of 0.5 µg/mL (≈ 1.27 µM). The PAE ([2]; 5×MIC, quinolone resistant strain) was 1.5 h, the PAE ([2]; 10×MIC for 1 h, range over 5 quinolone susceptible strains) was 0.3 to 2.0 h and the MIC50 [3] was 1 µg/mL (≈ 2.55 µM). For the same molecule, the “MIC Range” value [3] was 0.25 to 8.0 µg/mL.
